A short description of series [1]: XPS Pt4f surface reduction of Pt(IV) to Pt(II) under X-ray irradiation. The class given is physicochemical. To be noted: after 30 min irradiation, calculated from Pt(IV) abundances. From the text:
The Pt(IV) complexes were also characterized by X-ray photoelectron spectroscopy (XPS) in order to obtain information on the surface chemical composition and on the platinum speciation. Despite the surface sensitivity of the technique (topmost 5–8 nm), the analysis on homogeneous samples provides useful information on the chemical environment of all detected elements. […] Two doublets were found: one is attributed to Pt(II) (BE Pt4f7/2 = 72.9 ± 0.2 eV and BE Pt4f5/2 = 76.2 ± 0.2 eV), while the second doublet is attributed to Pt(IV) (BE Pt4f7/2 = 75.6 ± 0.2 eV and BE Pt4f5/2 = 79.0 ± 0.2 eV).
The Pt(IV)/Pt(II) relative abundance varies from case to case; moreover, if the X-ray degradation is monitored after 30 min exposure to the X-ray beam, an increase of the Pt(II) relative abundance is observed (Figure 8b).
X-ray Photoelectron Spectroscopy (XPS) analyses were run on a PHI 5000 Versa Probe II Scanning XPS Microprobe spectrometer (ULVAC PHI Inc., Kanagawa, Japan). Measurements were carried out using a monochromatic Al Kα source (X-ray spot 200 μm) at a power of 50.3 W. Wide scan and detailed spectra (Pt4f, C1s, Cl2p, N1s, O1s) were acquired in Constant Analyzer Energy (CAE) mode with a pass energy of 117.40 and 29.35 eV, respectively. An electron gun was used for charge compensation (1.0 V, 20.0 μA). Due to the X-ray sensitivity of Pt(IV) complexes, the Pt4f spectral region was acquired first. X-ray degradation kinetics experiments were performed analyzing the same sample area after 30 min. Data processing was performed by using the MultiPak software v. 9.8.0.19.

The next series concerns LoVo-OXP cancer cells. Kind of series: MTT cytotoxicity test, 72 h, oxaliplatin-resistant cells. The series is classed as cell-based, human. To be noted: for IC50: LoVo OXP. The text has this: Human colon (HCT-15 and LoVo) and pancreatic (PSN-1) carcinoma cell lines were obtained from the American Type Culture Collection (ATCC, RocKville, MD). The 2008 human ovarian cancer cells were kindly provided by Prof. G. Marverti (Dept. of Biomedical Science of Modena University, Italy). Human cervical carcinoma (A431) cells were kindly provided by Prof. F. Zunino (Division of Experimental Oncology B, Istituto Nazionale dei Tumori, Milan, Italy). […] Cell lines were maintained in the logarithmic phase at 37 °C in a 5% carbon dioxide atmosphere using RPMI-1640 or F-12 culture medium (Euroclone) containing 10% fetal calf serum (Euroclone, Milan, Italy), antibiotics (50 units per mL penicillin and 50 μg mL^−1 streptomycin), and 2 mM L-glutamine.
(§1) The growth inhibitory effect toward the tumor cell lines was evaluated by the MTT test. Briefly, 3-8·10^3 cells/well, depending upon the growth characteristics of the cell lines, were seeded in 96-well microplates in growth medium (100 µL) and then incubated at 37 °C in a 5% carbon dioxide atmosphere. After 24 h, the medium was removed and replaced with a fresh one containing the compound to be tested at the appropriate concentration. Triplicate cultures were established for each treatment. After 72 h, each well was treated with 10 µL of a 5 mg·mL^−1 MTT (3-(4,5-dimethylthiazol-2-yl)-2,5-diphenyltetrazolium bromide) saline solution and, after 5 h of incubation, 100 µL of a sodium dodecylsulfate (SDS) solution in HCl 0.01 M were added. Following an overnight incubation, the inhibition of cell growth induced by the tested complexes was evaluated by measuring the absorbance of each well at 570 nm using a Bio-Rad 680 microplate reader (Bio-Rad Laboratories S.r.l., Segrate (MI), Italy).
Background: Tetrazolium dyes change colour on reduction, which living cells bring about.

Series [2] is described as follows: Stability in solution followed by 1H-NMR (solvent-assisted photoreduction). The class given is physicochemical. To be noted: DMSO-d6, room temperature, not shielded from light. The text has this:
(5.4–6.5 ppm). Most likely, compound 4 underwent a solvent-assisted reduction process favored by light, as previously observed for similar compounds such as cis,trans,cis-[PtCl2(OH)2(cis-1,4-DACH)] [19, 20]. […] This reduction/solvation could also be observed in other solvents, such as D2O and CD3OD.
As for compound 4, the reduction is probably fostered by the presence of axial chlorido ligand(s).
The ^13C NMR signals are influenced by the asymmetry of the complex with respect to the equatorial plane with two peaks at 125.4 and 125.2 ppm for the vinylic carbons, two signals at 60.2 and 59.3 ppm for the methynic carbons, and two signals at 33.1 and 32.6 ppm for the methylenic carbons (Figure S10).

In series [3] the test system is panel of human cancer cell lines (PSN-1, HCT-15, LoVo, A431, 2008). Put plainly: MTT cytotoxicity, average over the panel of human cancer cell lines. The class given is cell-based. To be noted: 72 h. As to the method: The in vitro cytotoxic activities of compounds 1–6 were assayed on a panel of human cancer cell lines containing examples of pancreatic (PSN-1), colon (HCT-15 and LoVo), cervical (A431), and ovarian (2008) cancers. Cisplatin and oxaliplatin were used as reference compounds and were tested under the same experimental conditions.
[17, 30] Thus, the pharmacological activity decreases in the order 3 >> 1 ≈ 2 ≈ 4 > 5 > 6.
as §1

Consider `NC1CC=CCC1N.O=C1[O][Pt]([OH])([Cl])[O]C1=O` (racemic) [Complex 6, cis,trans,cis-[Pt(OXA)(OH)Cl(DACHEX)]], for which, in series [1], the “% of Reduction” value is recorded as 64%. For the same molecule, the IC50 (usually the midpoint of a concentration-inhibition curve) in the series on LoVo-OXP cancer cells was greater than 2000 nM. Also, the “stability in solution (reduction to Pt(II) / solvation)” value in series [2] was “underwent reduction followed by solvation”.
Taken in the same sequence, the figures for `CC(=O)[O][Pt]1([Cl])[O]C(=O)C(=O)[O]1.NC1CC=CCC1N` (racemic) [Complex 5, cis,trans,cis-[Pt(OXA)(AcO)Cl(DACHEX)]] were 67%, greater than 2000 nM and “shows a photo-assisted reduction accompanied by solvation”.
For `NC1CC=CCC1N.O=C([O-])C(=O)[O-].O=C([O-])c1ccccc1.O=C([O-])c1ccccc1.[Pt+4]` (mixture of isomers) [Complex 3, cis,trans,cis-[Pt(OXA)(BzO)2(DACHEX)]], the “% of Reduction” value in series [1] is reported as 66%. In the series with LoVo-OXP cancer cells, the “effectiveness against sensitive (LoVo) versus resistant (LoVo-OXP) cells” value is reported as “equally effective”. In addition, the figures for the IC50 (in the series with LoVo-OXP cancer cells; in series [3] (mean over the cell line panel)) were 90 ± 20 nM and 260 nM, respectively. The “times more cytotoxic than the other Pt(IV) compounds of the series” value in series [3] is given as “about five times more active”; in series [3] (listed as bis-benzoate derivative), 5–8.

(Values after PMC7177638 (International Journal of Molecular Sciences, 2020).)
